# In patent publication US9655899B2, “Compositions and methods for treating cancer” (Merck Sharp & Dohme Corp., priority 2012, dated 2017):
# Read-outs that look alike come from different tables or passages of the source.
# Tests used:
# KNS62 [1] = assay: PKMYT1 siRNA knockdown proliferation assay (ViaLight, 72 hours); assay type: cell-based, human; settings: for dose response curves in control (CT) versus PKMYT1 siRNA transfected cells / EC50: 72 hours; for EC50: Homo sapiens, KNS-62, 72 h, n=2, read-out: anti-proliferative EC50
# Protocol: (§1) For the knockdown studies, NCI-H460 and KNS62, two non-small cell lung cancer cell lines, American Type Culture Collection, Manassas, Va., were transfected with siRNA pools (SMARTpool, Dharmacon, Thermo Fisher Scientific, Waltham, Mass.) with either non-targeting control or PKMYT1 sequences. […] To approximate cell content, ViaLight (Lonza, Basel, Switzerland) was used according to manufacturer's protocol. Samples were run in triplicate and growth was calculated by determining the percentage of the control raw value for each treatment.
# NCI-H460 [2] = assay: as above; assay type: cell-based, human; settings: for dose response curves in control (CT) versus PKMYT1 siRNA transfected cells / EC50: 72 hours; for EC50: Homo sapiens, NCI-H460, 72 h, n=3, read-out: anti-proliferative EC50
# Protocol: as §1
# 522 cancer cell lines = assay: Cellular proliferation assay screen (CellTiter-Glo, 96 hours); assay type: cell-based, human; settings: for EC50: Homo sapiens, 96 h
# Protocol: (§2) All cancer cell lines were grown in medium recommended by the cell line vendor (ATCC). Tissue culture media, serum, and supplements were purchased from Sigma-Aldrich® (St. Louis, Mo.). For the proliferation assay screen (FIG. 1), cells were plated in 384-well tissue culture plates and grown under compound or vehicle treatment. After 96 hours, CellTiter-Glo (Promega, Madison, Wis.) was used according to the manufacturer's protocol to approximate cell content. Samples were run in triplicate and growth was calculated as the CellTiter-Glo raw value of treated samples relative to vehicle-treated control wells.
# [3] = system: colorectal cancer cell lines; assay: as above; assay type: cell-based; settings: Homo sapiens, n=66
# Protocol: as §2
# [4] = system: neuroblastoma tumor cell lines; assay: as above; assay type: cell-based; settings: Homo sapiens, n=7
# Protocol: as §2
# [5] = system: A427 non-small cell lung cancer cell line; assay: Proliferation assay; assay type: cell-based; settings: Homo sapiens, A-427
# Protocol: as §2
# A431 = assay: Proliferation assay; assay type: cell-based; settings: Homo sapiens, A-431
# Protocol: as §2
# ES-2 = assay: Proliferation assay; assay type: cell-based; settings: Homo sapiens
# Protocol: as §2
# KNS62 [6] = assay: Proliferation assay; assay type: cell-based; settings: Homo sapiens, KNS-62
# Protocol: as §2
# NCI-H460 [7] = assay: Proliferation assay; assay type: cell-based; settings: Homo sapiens
# Protocol: as §2
# pCHK1^S345 = assay: Western blot, DNA damage response marker; assay type: cell-based, human; settings: 2 hours
# Source text: (§3) Cells were lysed in mammalian protein extraction reagent (MPER, Thermo Fisher 78505, Waltham, Mass.) and then subjected to SDS-PAGE and transferred onto nitrocellulose or PVDF membranes. Antibodies used for Western blotting are from the following sources: total CDK1, pCDK1^Y15, pCDK1^T14, pCHK1^S345, pStathmin^S38, pLaminA/C^S22, pCDK substrate motif, γH2AX, Cyclin A, and total PKMYT1 from Cell Signaling Technologies (Beverly, Mass.); actin-HRP from Santa Cruz Biotechnology (Santa Cruz, Calif.); secondary HRP-conjugated anti-mouse and rabbit antibodies from GE Healthcare (Waukesha, Wis.). Blots were exposed with SuperSignal West Femto chemiluminescent substrate (Thermo Fisher Pierce, Waltham, Mass.).
# pCDK1^Y15 = assay: Western blot, WEE1 substrate phosphorylation; assay type: cell-based, human; settings: all six cell lines; 2 hours
# Source text: as §3
# pCDK1^T14 = assay: Western blot, CDK1 T14 phosphorylation; assay type: cell-based, human; settings: six cell lines, possible exception of A427; 2 hours
# Source text: as §3
# [8] = system: TOV21G ovarian cancer cells; assay: Flow cytometry for DNA double strand breaks (γH2AX) and BrdU uptake; assay type: cell-based, human; settings: 150 nM
# Protocol: (§4) To detect DNA double strand breaks, cells were stained with a FITC-conjugated anti-γH2AX (S139) antibody (kit 17-344, Millipore, Billerica, Mass.) after having been fixed overnight in ice-cold 70% ethanol Propidium iodide (PI)/RNase solution (BD Biosciences, Franklin Lakes, N.J.) was used to detect total DNA content. For studies interrogating premature mitosis, an anti-pHH3-Alexa 647 antibody (BD Biosciences 558217) was added. For synchronization studies, cells were incubated in serum-free medium for 36 hours, followed by replenishment with 20% FBS. One hour prior to each harvest, cells were pulsed with 10 μM bromodeoxyuridine (BrdU). Cells were fixed and stained for BrdU and DNA content with an anti-BrdU FITC-conjugated antibody and 7-aminoactinomycin-D (7-AAD) dye, respectively, according to the instructions in the BD Pharmingen™ FITC BrdU Flow Kit (BD Biosciences, Franklin Lakes, N.J.). All cytometry data were collected on the BD LSR II flow cytometer using the BD FACS Diva™ software (BD Biosciences, Franklin Lakes, N.J.), and the results were analyzed in FlowJo version 7.5.
# ES-2 cells [9] = assay: Cell synchronization study, S-phase population (BrdU); assay type: cell-based, human
# Protocol: For synchronization studies, cells were incubated in serum-free medium for 36 hours, followed by replenishment with 20% FBS. One hour prior to each harvest, cells were pulsed with 10 μM bromodeoxyuridine (BrdU). Cells were fixed and stained for BrdU and DNA content with an anti-BrdU FITC-conjugated antibody and 7-aminoactinomycin-D (7-AAD) dye, respectively, according to the instructions in the BD Pharmingen™ FITC BrdU Flow Kit (BD Biosciences, Franklin Lakes, N.J.). All cytometry data were collected on the BD LSR II flow cytometer using the BD FACS Diva™ software (BD Biosciences, Franklin Lakes, N.J.), and the results were analyzed in FlowJo version 7.5.
# A2058 cells [10] = assay: Flow cytometry for mitotic marker pHH3; assay type: cell-based, human; settings: EC90 concentration; 24 hours
# Protocol: (§5) To detect DNA double strand breaks, cells were stained with a FITC-conjugated anti-γH2AX (S139) antibody (kit 17-344, Millipore, Billerica, Mass.) after having been fixed overnight in ice-cold 70% ethanol Propidium iodide (PI)/RNase solution (BD Biosciences, Franklin Lakes, N.J.) was used to detect total DNA content. For studies interrogating premature mitosis, an anti-pHH3-Alexa 647 antibody (BD Biosciences 558217) was added.
# HT-29 cells [11] = assay: Flow cytometry for mitotic marker pHH3; assay type: cell-based, human; settings: EC90 concentration; 24 hours
# Protocol: as §5
# LoVo cells [12] = assay: Flow cytometry for mitotic marker pHH3; assay type: cell-based, human; settings: EC90 concentration; 24 hours
# Protocol: as §5
# A2058 cells [13] = assay: Flow cytometry for γH2AX at EC90; assay type: cell-based, human; settings: EC90 concentration; 24 hours
# Protocol: as §5
# HT-29 cells [14] = assay: Flow cytometry for γH2AX at EC90; assay type: cell-based, human; settings: EC90 concentration; 24 hours
# Protocol: as §5
# LoVo cells [15] = assay: Flow cytometry for γH2AX at EC90; assay type: cell-based, human; settings: EC90 concentration; 24 hours
# Protocol: as §5
# ES-2 cells [16] = assay: Flow cytometry for γH2AX in serum-starved cells with or without FBS; assay type: cell-based, human; settings: 500 nM; 24 hours; 20% FBS
# Protocol: as §4
# [17] = twice daily (BID) dosing
# Source text: (§6) CD-1 Nu/Nu female mice aged 5-6 weeks were obtained from Charles River Laboratories (Wilmington, Del.) and housed in Applicants animal care facility at standard laboratory conditions and fed 2018S autoclaveable diet (Harlan Laboratories, Indianapolis, Ind.) and water ad libitum. The protocol was approved by Applicants' in-house animal care and use committee. Mice were inoculated with cells (1:1 Matrigel:PBS) subcutaneously (SC) into the right flank. […] Tumor volume and body weights were recorded bi-weekly.
# A427 xenograft = assay: In vivo efficacy, xenograft; parameters: species or system mice; settings: 60 mg/kg BID, 28 days
# Source text: as §6
# [18] = system: A431 epidermoid tumor model; assay: In vivo efficacy, xenograft; parameters: species or system mice; settings: single agent
# Source text: as §6
# [19] = system: LoVo colorectal tumor model; assay: In vivo efficacy, xenograft; parameters: species or system mice; settings: single agent, 60 mg/kg BID; treatment stopped on day 13
# Source text: as §6
# NCI-H2122 NSCLC model = assay: In vivo efficacy, xenograft; parameters: species or system mice; settings: single agent
# Source text: as §6
# SK-MES-1 NSCLC model = assay: In vivo efficacy, xenograft; parameters: species or system mice; settings: single agent, 60 mg/kg BID
# Source text: as §6
smiles,measurement,setting,value
"O=C(NOC[C@H](O)CO)c1ccc(F)c(F)c1Nc1ccc(I)cc1F [PD-0325901, reference compound]",dose response curves in control (CT) versus PKMYT1 siRNA transfected cells,KNS62 [1],identical dose response curves
same,dose response curves in control (CT) versus PKMYT1 siRNA transfected cells,NCI-H460 [2],identical dose response curves
"C=CCn1c(=O)c2cnc(Nc3ccc(N4CCN(C)CC4)cc3)nc2n1-c1cccc(C(C)(C)O)n1 [WEE1-1, 2-allyl-1-[6-(1-hydroxy-1-methylethyl)pyridin-2-yl]-6-{[4-(4-methylpiperazin-1-yl)phenyl]amino}-1,2-dihydro-3H-pyrazolo[3,4-d]pyrimidin-3-one]",response on an adjusted scale (cell lines that were killed),"522 cancer cell lines; 450 nM, 33 of 305 cell lines, 96-hour proliferation assay, 0.25 or less = cell death",< 0.25
same,EC50,"522 cancer cell lines; lower end of range, 2% (9/522) of cell lines",≤ 100 nM
same,EC50,"522 cancer cell lines; upper end of range, 19% (98/522) of cell lines",≥ 1000 nM
same,range of anti-proliferative EC50s,522 cancer cell lines; across cell lines screened,at least 10 fold
same,EC50,[3]; read-out: EC50 range,≥ 170 nM
same,EC50,[3]; read-out: mean EC50,1160 nM
same,EC50,[4]; read-out: EC50 range,120 to 450 nM
same,EC50,[4]; read-out: mean EC50,280 nM
same,EC50,[5],116 nM
same,EC50,A431,170 nM
same,EC50,ES-2,256 nM
same,EC50,KNS62 [6],487 nM
same,EC50,NCI-H460 [7],535 nM
same,lowest concentration with evidence of increased pCHK1^S345,"pCHK1^S345; ES-2, A2058, A431 and A427",50 nM
same,activation of the DDR (pCHK1^S345),"pCHK1^S345; all six cell lines (ES-2, A2058, A431, A427, KNS62, NCI-H460)",dose-dependent activation of the DDR
same,effect on pCDK1^Y15,pCDK1^Y15,dose-dependent reduction
same,effect on pCDK1^T14,pCDK1^T14,did not observe a WEE1-1-dependent effect
same,share of DNA damage detected in BrdU-positive cells,[8]; 2 hours,95%
same,share of DNA damage detected in BrdU-positive cells,[8]; 6 hours,92%
same,cells staining positive for γH2AX,"[8]; two hours of treatment, 1% to 2% in untreated growing cells",23%
same,change in the S-phase population by 8 hours,ES-2 cells [9]; 500 nM with 20% FBS,no detectable change
same,peak S-phase population,ES-2 cells [9]; 500 nM with 20% FBS after 36 hours serum withdrawal,about 50%
same,time of peak S-phase population post-FBS,"ES-2 cells [9]; 500 nM with 20% FBS, vehicle peak at 12 to 14 hours",24 h
same,percentage of pHH3 positive cells,A2058 cells [10],increased
same,mitotic (pHH3 positive) population with 4N DNA,HT-29 cells [11],43%
same,mitotic (pHH3 positive) population with <4N DNA,HT-29 cells [11],23%
same,percentage of pHH3 positive cells,LoVo cells [12],increased
same,H2AX-positive cell population,A2058 cells [13],8%
same,H2AX-positive cell population,HT-29 cells [14],59%
same,H2AX-positive cell population,LoVo cells [15],27%
same,degree of DNA double strand breaks (γH2AX) under mitogen stimulation versus cells not restimulated,ES-2 cells [16],appreciably larger
same,maximum tolerated dose (MTD),[17],60 mg per kg
same,final volumes of individual treated tumors versus initial volumes,A427 xenograft; all 10 tumors,smaller than their initial volumes
same,"regression, final volume as % of the initial mean tumor volume",A427 xenograft; n=10,approximately 50%
same,TGI,[18],88%
same,tumor regression,[19],13%
same,TGI,NCI-H2122 NSCLC model,64%
same,Tumor growth inhibition (TGI),SK-MES-1 NSCLC model,92%
same,maximal effect of treatment upon PKMYT1 depletion,KNS62 [1],not affected
same,EC50,KNS62 [1]; PKMYT1 knocked down,93 nM
same,EC50,KNS62 [1]; non-targeting control siRNA,487 nM
same,maximal effect of treatment upon PKMYT1 depletion,NCI-H460 [2],not affected
same,EC50,NCI-H460 [2]; PKMYT1 knocked down,104 nM
same,EC50,NCI-H460 [2]; non-targeting control siRNA,677 nM
"N.N.O=C([O-])C1(C(=O)[O-])CCC1.[Pt+2] [carboplatin, reference compound]",dose response curves in control (CT) versus PKMYT1 siRNA transfected cells,KNS62 [1],identical dose response curves
same,dose response curves in control (CT) versus PKMYT1 siRNA transfected cells,NCI-H460 [2],identical dose response curves
"COc1cccc2c1C(=O)c1c(O)c3c(c(O)c1C2=O)C[C@@](O)(C(=O)CO)C[C@@H]3O[C@H]1C[C@H](N)[C@H](O)[C@H](C)O1 [doxorubicin, reference compound]",dose response curves in control (CT) versus PKMYT1 siRNA transfected cells,KNS62 [1],identical dose response curves
same,dose response curves in control (CT) versus PKMYT1 siRNA transfected cells,NCI-H460 [2],identical dose response curves
